The text below walks through data of patent publication US20090018136A1, “METHODS AND COMPOSITIONS FOR THE TREATMENT OF VASCULAR DISEASE” (priority 2005, published 2009).

In data set [1] the test system is venous grafts and arteries. As to conditions: acute BH4; diabetic subjects undergoing coronary artery bypass graft surgery; cited from earlier work.
Another data set relates to cardiac allograft. The settings on record: cited from earlier work.
The subject of the next data set is beagles. As to conditions: dog, in vivo, po, 100 mg/kg. As for the experimental part: This study evaluated the cardiovascular effects of high doses of 6R-BH4 in combination with the PDE5 inhibitor sildenafil citrate in vivo. Eight male research nonnaïve and naïve purebred beagles were dosed in a double Latin square crossover design as described in the following table. All animals were dosed by oral gavage. Test articles were administered at a dose volume of 5 mL/kg (for a total volume of 10 mL/kg for the combination dose); control animals were dosed at a dose volume of 10 mL/kg. 6R-BH4 (sapropterin dihydrochloride) provided as 300 mg tablets (100 mg active 6R-BH4/tablet) stored at room temperature with desiccant.
At initiation of treatment, the animals were approximately 7 to 10 months old, and their body weights prior to dosing ranged from 7.8 to 12.0 kg.
At least 2 weeks prior to initiation of treatment, animals were fasted overnight, anesthetized, and an electrocardiogram (ECG) and blood pressure transmitter were implanted into the abdomen and sutured to the abdominal wall. The blood pressure catheter was placed in an artery and advanced to the abdominal aorta. Animals were checked twice daily (a.m. and p.m.) for mortality, abnormalities, and signs of pain and distress. Additional findings were recorded as observed.
Detailed observations were taken three times during the predose phase (including the day before dosing) and on Days 3 and 10 of the dosing phase. For each dosing day, ECG and pressure measurements were recorded for at least 90 minutes prior to dosing, continuously for at least 8 hours after dosing, and then for one period of at least 15 minutes in duration each hour through at least 24 hours postdose. Blood pressure measurements included systolic, diastolic, and mean arterial pressures and pulse pressure (systolic-diastolic). […]
Quantitative evaluation of ECG measurements, including RR interval, QT, and rate-corrected QT (QTc, using Fridericia's method), were done.
Positive inotropic effects (+dP/dtmax) and heart rate were calculated from a left ventricular pressure signal predose and approximately 2, 4, 8, 12, and 24 hours postdose. […]

Data set [2] deals with coronary blood flow velocity. The settings on record: BH4 infused during angiography, patients with endothelial dysfunction; cited from earlier work.
Data set [3] concerns patients with poorly controlled hypertension. As to conditions: cited from earlier work.
The test system of another data set is brachial artery. Put plainly: Study 1: brachial artery flow-mediated and nitroglycerin-mediated vasodilation by ultrasound. The data set is classed as in vivo, human. As for the experimental part:
The technique was carried out as described in Prasad et al., Circulation, 2000. 101(20): p. 2349-54. Briefly, using an 11 MHz high resolution ultrasound transducer (Acuson Inc) in a temperature-controlled room, brachial diameter was measured above the antecubital fossa in the non-dominant arm. Flow-mediated vasodilation (FMD) was measured by inflating a BP cuff on the forearm to >200 mm Hg for 5 minutes, deflating rapidly, and measuring brachial diameter at 1 minute after onset of hyperemia. For all measurements three diameters were measured on three separate end-diastolic frames and averaged. To obtain the maximal brachial artery dilation that represents FMD the following equation was used: (average diameter with hyperemia−average baseline diameter)÷average baseline diameter X 100. To measure the endothelium-independent vasodilator response, subjects were given sublingual nitroglycerin 0.4 mg and the brachial diameter was measured as above after 5 minutes. To obtain endothelium-independent vasodilation the following equation was used: (average diameter post nitroglycerin-average baseline diameter)÷average baseline diameter X 100. For both study 1 and study 2, the primary end point after statistical analysis was a reduction of systolic, mean and diastolic BP during BH4 therapy. Secondary end points included improvement of endothelial function as FMD. Linear mixed effects models for repeated measures data were used to analyze change in BP from baseline to end of treatment period and differences in change between 100 mg and 200 mg dose groups. A quadratic term for week was included in the model to account for non-linear trends over the treatment period. Dose, week and week squared were the main effect terms in the model; dose by week and dose by week squared were the interaction terms in the model. Significant interaction terms indicate a difference in the pattern of change between the two dose groups. FMD data was analyzed using the two-tailed student t-test.

`C[C@H](O)[C@H](O)[C@H]1CNc2nc(N)[nH]c(=O)c2N1` [BH4, tetrahydrobiopterin]: the “vascular function in venous grafts and arteries” value in data set [1] is “restores”. Also, in the data set with cardiac allograft (BH4 50 mg/kg every 8 hours intramuscularly for 7 days, untreated allografts 7.1±0.7 days, p<0.05), the “mean graft survival time” value is 12.3 ± 4.9 days. The allograft survival result with cardiac allograft (allogeneic mouse heart transplantation) is on record as “significantly prolonged”. For the same molecule, the “Nitrate and nitrite concentrations in plasma” value with cardiac allograft (day 6, also elevated in untreated animals) is on record as “elevated”. For the same molecule, the “effect on any of the cardiovascular parameters measured” value in the data set on beagles is listed as “No effect”. Besides, the “abnormal vasoconstriction to acetylcholine” value in data set [2] was “prevented”. The “blood pressure after cessation of therapy” value in data set [3] (6 weeks after cessation) was “returned to baseline values”. The FMD following withdrawal entry in data set [3] (after 1 week following withdrawal) is “returned to baseline”. Further, the FMD result in data set [3] (after 8 weeks of oral BH4 (5 mg/kg/d, 10 mg/kg/d), eight patients) is “increased significantly”. Also, in data set [3] (human, in vivo), the “treatment time after which blood pressure reduction was significant” value is 3 weeks. In addition, the “systolic and diastolic pressures” value in data set [3] (oral BH4 5 or 10 mg/kg/d over 8 weeks) is on record as “significantly reduced”. Further, the “Flow-mediated vasodilation of the brachial artery” value with brachial artery (Study 1, 6 weeks after termination of therapy, p=ns compared to baseline) is 3.7±1.3%; in the data set on brachial artery (Study 1, after 8 weeks of BH4, baseline mean 3.4±1%, p=0.05, n=6), 8.2±3.4%. In the data set with brachial artery (Study 1, after BH4, 11.9±3% before, p=0.1, remained unchanged), this molecule returned a Nitroglycerin-mediated vasodilation of 16.1±5%.
